Test results as given in patent US9902736B2, “1-oxo/acylation-14-acylated oridonin derivative, preparation method therefor and application thereof” (HANGZHOU BENSHENG PHARMACEUTICAL CO., LTD., priority 2012, dated 2018).
≈ marks a conversion by molar mass, not a printed value.

Key:
CNE = assay: Solid tumor cell growth inhibition, MTT, 72 h; assay type: cell-based, human; settings: Homo sapiens, CNE; 72 h, MTT
Experimental: (§1) 6000 well-growing human solid tumor cells were obtained and inoculated into wells of a 96-well cell culture plate. The culture medium was DMEM High Glucose cell culture medium containing 10% fetal bovine serum. The plate was placed in a carbon dioxide cell incubator (5% CO2) at 37° C. and incubated for 24 hours. After added with 1-oxo/acylated-14-acylated oridonin derivatives of different concentration and mixed uniformly, the plate was placed in a carbon dioxide cell incubator (5% CO2) at 37° C. and incubated for 72 hours. Then the viable cell concentration was determined by MTT method.

Hela = assay: Solid tumor cell growth inhibition, MTT, 72 h; assay type: cell-based, human; settings: Homo sapiens, HeLa; 72 h, MTT
Experimental: as §1

Hep-2 = assay: Solid tumor cell growth inhibition, MTT, 72 h; assay type: cell-based, human; settings: Homo sapiens, HEp-2; 72 h, MTT
Experimental: as §1

MGC-803 = assay: Solid tumor cell growth inhibition, MTT, 72 h; assay type: cell-based, human; settings: Homo sapiens, MGC-803; 72 h, MTT
Experimental: as §1

NB4 = assay: Leukemia cell growth inhibition, MTT, 72 h; assay type: cell-based, human; settings: Homo sapiens, NB-4; 72 h, MTT
Excerpt: (§2) Leukemia cell lines: leukemia cell lines: K562/adr (drug-resistant, chronic myeloid leukemia, CML), NB4 (acute promyelocytic leukemia, AML), Kasumi-1 (acute myeloid leukemia M2 type, AML-M2), Jurkat (acute lymphoblastic leukemia, ALL), all of which were donated by Cancer Research Institute of Zhejiang University, China; and H9 (acute lymphoblastic leukemia, ALL), which was purchased from China Center for Type Culture Collection.
(§3) 6000 well-growing leukemia cells were obtained and inoculated into wells of a 96-well cell culture plate. […] On the next day, the 1-oxo/acylated-14-acylated oridonin derivatives of different concentrations were added and mixed uniformly. The plate was placed in a carbon dioxide cell incubator (5% CO2) at 37° C. and was incubated for 72 hours. Then the viable cell concentration was determined by MTT method.

Jurkat = assay: Leukemia cell growth inhibition, MTT, 72 h; assay type: cell-based, human; settings: Homo sapiens, Jurkat; 72 h, MTT
Excerpt: as §2, §3

H9 = assay: Leukemia cell growth inhibition, MTT, 72 h; assay type: cell-based, human; settings: Homo sapiens, H9; 72 h, MTT
Excerpt: as §2, §3

RPMI 8226 = assay: Multiple myeloma cell growth inhibition, MTT, 72 h; assay type: cell-based; settings: Homo sapiens
Experimental: Multiple myeloma cell lines: RPMI8226 (multiple myeloma), purchased from Fuxiang Bio-tech Co. Ltd., Shanghai, China.
6000 well-growing cells were obtained and inoculated into wells of a 96-well cell culture plate. […] On the next day, the 1-oxo/acylated-14-acylated oridonin derivatives of different concentrations were added and mixed uniformly. The plate was placed in a carbon dioxide cell incubator (5% CO2) at 37° C. and incubated for 72 hours. Then the viable cell concentration was determined by MTT method.

K562/ADR = assay: Leukemia cell growth inhibition, MTT, 72 h; assay type: cell-based; settings: Homo sapiens
Excerpt: as §2, §3

Kasumi-1 = assay: Leukemia cell growth inhibition, MTT, 72 h; assay type: cell-based; settings: Homo sapiens
Excerpt: as §2, §3

CaEs-17 = assay: Solid tumor cell growth inhibition, MTT, 72 h; assay type: cell-based; settings: Homo sapiens, CaEs17
Experimental: as §1

PANC-1 = assay: Solid tumor cell growth inhibition, MTT, 72 h; assay type: cell-based; settings: Homo sapiens
Experimental: as §1

Becap-37 = assay: Solid tumor cell growth inhibition, MTT, 72 h; assay type: cell-based; settings: Homo sapiens
Experimental: as §1

Hep G2 = assay: Solid tumor cell growth inhibition, MTT, 72 h; assay type: cell-based; settings: Homo sapiens, HepG2
Experimental: as §1

A549 = assay: Solid tumor cell growth inhibition, MTT, 72 h; assay type: cell-based; settings: Homo sapiens
Experimental: as §1

RKO = assay: Solid tumor cell growth inhibition, MTT, 72 h; assay type: cell-based; settings: Homo sapiens
Experimental: as §1

U87-MG = assay: Solid tumor cell growth inhibition, MTT, 72 h; assay type: cell-based; settings: Homo sapiens, U-87 MG
Experimental: as §1

MG-63 = assay: Solid tumor cell growth inhibition, MTT, 72 h; assay type: cell-based; settings: Homo sapiens
Experimental: as §1

SK-OV-3 = assay: Solid tumor cell growth inhibition, MTT, 72 h; assay type: cell-based; settings: Homo sapiens, SK-OV-3, 72 h, MTT; for IC50: read-out: IC50 SK-OV-3; for IC90: read-out: IC90 SK-OV-3
Experimental: as §1

PC-3 = assay: Solid tumor cell growth inhibition, MTT, 72 h; assay type: cell-based; settings: Homo sapiens
Experimental: as §1

SMILES | IC50 (CNE) [µg/mL] | IC90 (CNE) [µg/mL] | IC50 (Hela) [µg/mL] | IC90 (Hela) [µg/mL] | IC50 (Hep-2) [µg/mL] | IC90 (Hep-2) [µg/mL] | IC50 (MGC-803) [µg/mL] | IC90 (MGC-803) [µg/mL] | IC50 (NB4) [µg/mL] | IC90 (NB4) [µg/mL] | IC50 (Jurkat) [µg/mL] | IC90 (Jurkat) [µg/mL] | IC50 (H9) [µg/mL] | IC90 (H9) [µg/mL] | IC50 (RPMI 8226) [µg/mL] | IC90 (RPMI 8226) [µg/mL] | IC50 (K562/ADR) [µg/mL] | IC90 (K562/ADR) [µg/mL] | IC50 (Kasumi-1) [µg/mL] | IC90 (Kasumi-1) [µg/mL] | also measured
C=C1C(=O)[C@]23[C@H](OC(=O)c4ccncc4)[C@H]1CC[C@H]2[C@@]12CO[C@@]3(O)[C@@H](O)[C@@H]1C(C)(C)CCC2=O [BS-OR-012] | 2.47 (≈ 5.28 µM) | 9.36 (≈ 20 µM) | 2.42 (≈ 5.18 µM) | 6.3 (≈ 13.5 µM) | 3.61 (≈ 7.72 µM) | 14.7 (≈ 31.5 µM) | 1.79 (≈ 3.83 µM) | 3.99 (≈ 8.53 µM) | 0.32 (≈ 0.684 µM) | 1.3 (≈ 2.78 µM) | 0.99 (≈ 2.12 µM) | 5.77 (≈ 12.3 µM) | 0.75 (≈ 1.6 µM) | 1.99 (≈ 4.26 µM) | 0.92 (≈ 1.97 µM) | 3.48 (≈ 7.44 µM) | 0.75 (≈ 1.6 µM) | 3.2 (≈ 6.84 µM) | 1.15 (≈ 2.46 µM) | 2.39 (≈ 5.11 µM) | IC50 (CaEs-17): 2.01 µg/mL (≈ 4.3 µM); IC90 (CaEs-17): 10 µg/mL (≈ 21.5 µM); IC50 (PANC-1): 4.11 µg/mL (≈ 8.79 µM); IC90 (PANC-1): 10.2 µg/mL (≈ 21.8 µM); IC50 (Becap-37): 2.39 µg/mL (≈ 5.11 µM); IC90 (Becap-37): 6.29 µg/mL (≈ 13.5 µM); IC50 (Hep G2): 3.01 µg/mL (≈ 6.44 µM); IC90 (Hep G2): 16 µg/mL (≈ 34.2 µM); IC50 (A549): 5.55 µg/mL (≈ 11.9 µM); IC90 (A549): 10.7 µg/mL (≈ 22.9 µM); IC50 (RKO): 1.01 µg/mL (≈ 2.16 µM); IC90 (RKO): 1.98 µg/mL (≈ 4.24 µM); IC50 (U87-MG): 1.88 µg/mL (≈ 4.02 µM); IC90 (U87-MG): 6.17 µg/mL (≈ 13.2 µM); IC50 (MG-63): 0.99 µg/mL (≈ 2.12 µM); IC90 (MG-63): 3.84 µg/mL (≈ 8.21 µM); IC50 (SK-OV-3): 3.48 µg/mL (≈ 7.44 µM); IC90 (SK-OV-3): 7.54 µg/mL (≈ 16.1 µM); IC50 (PC-3): 3.48 µg/mL (≈ 7.44 µM); IC90 (PC-3): 7.54 µg/mL (≈ 16.1 µM)
C=C1C(=O)[C@]23[C@H](OC(=O)c4ccc(OC)c(OC)c4)[C@H]1CC[C@H]2[C@@]12CO[C@@]3(O)[C@@H](O)[C@@H]1C(C)(C)CCC2=O [BS-OR-015] | 1.05 (≈ 1.99 µM) | 4.05 (≈ 7.69 µM) | 1.53 (≈ 2.91 µM) | 3.75 (≈ 7.12 µM) | 1.12 (≈ 2.13 µM) | 5.05 (≈ 9.59 µM) | 0.84 (≈ 1.6 µM) | 4.68 (≈ 8.89 µM) | 0.11 (≈ 0.209 µM) | 0.43 (≈ 0.817 µM) | 0.69 (≈ 1.31 µM) | 2.31 (≈ 4.39 µM) | 0.45 (≈ 0.855 µM) | 1.82 (≈ 3.46 µM) | 0.3 (≈ 0.57 µM) | 1.85 (≈ 3.51 µM) | 0.51 (≈ 0.969 µM) | 1.97 (≈ 3.74 µM) | 0.51 (≈ 0.969 µM) | 1.15 (≈ 2.18 µM) | IC50 (CaEs-17): 0.95 µg/mL (≈ 1.8 µM); IC90 (CaEs-17): 3.05 µg/mL (≈ 5.79 µM); IC50 (PANC-1): 1.88 µg/mL (≈ 3.57 µM); IC90 (PANC-1): 9.81 µg/mL (≈ 18.6 µM); IC50 (Becap-37): 0.99 µg/mL (≈ 1.88 µM); IC90 (Becap-37): 3.17 µg/mL (≈ 6.02 µM); IC50 (Hep G2): 0.94 µg/mL (≈ 1.79 µM); IC90 (Hep G2): 5.47 µg/mL (≈ 10.4 µM); IC50 (A549): 2.38 µg/mL (≈ 4.52 µM); IC90 (A549): 5.33 µg/mL (≈ 10.1 µM); IC50 (RKO): 0.42 µg/mL (≈ 0.798 µM); IC90 (RKO): 0.94 µg/mL (≈ 1.79 µM); IC50 (U87-MG): 0.87 µg/mL (≈ 1.65 µM); IC90 (U87-MG): 2.41 µg/mL (≈ 4.58 µM); IC50 (MG-63): 0.4 µg/mL (≈ 0.76 µM); IC90 (MG-63): 0.96 µg/mL (≈ 1.82 µM); IC50 (SK-OV-3): 1.66 µg/mL (≈ 3.15 µM); IC90 (SK-OV-3): 3.04 µg/mL (≈ 5.77 µM); IC50 (PC-3): 1.66 µg/mL (≈ 3.15 µM); IC90 (PC-3): 3.04 µg/mL (≈ 5.77 µM)
